# Source: the kinase profiling compilation of Christmann-Franck et al. (2016)
# How the values were obtained:
# ACVR1B (human) = ACVR1B (human) (UniProt P36896); assay: radiometric filter-binding kinase assay, Kinaseprofiler; settings: compound 10.0 µM; ATP 10 µM
# MAPK3 (human) = MAPK3 (human) (UniProt P27361); assay: as above; settings: compound 10.0 µM; ATP 70 µM
# Sequence of MAPK3 (human) (P27361 whole entry, looked up): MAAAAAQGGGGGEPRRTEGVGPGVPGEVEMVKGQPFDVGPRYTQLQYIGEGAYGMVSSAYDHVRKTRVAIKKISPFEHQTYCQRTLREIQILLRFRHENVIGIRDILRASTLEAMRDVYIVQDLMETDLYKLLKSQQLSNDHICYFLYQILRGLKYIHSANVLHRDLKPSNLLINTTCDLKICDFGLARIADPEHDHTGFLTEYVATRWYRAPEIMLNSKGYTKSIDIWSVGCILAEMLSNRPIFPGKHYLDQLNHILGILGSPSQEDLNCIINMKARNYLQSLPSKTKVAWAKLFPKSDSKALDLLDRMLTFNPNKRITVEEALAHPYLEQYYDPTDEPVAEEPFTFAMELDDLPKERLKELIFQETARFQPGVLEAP
# Sequence of ACVR1B (human) (P36896 whole entry, looked up): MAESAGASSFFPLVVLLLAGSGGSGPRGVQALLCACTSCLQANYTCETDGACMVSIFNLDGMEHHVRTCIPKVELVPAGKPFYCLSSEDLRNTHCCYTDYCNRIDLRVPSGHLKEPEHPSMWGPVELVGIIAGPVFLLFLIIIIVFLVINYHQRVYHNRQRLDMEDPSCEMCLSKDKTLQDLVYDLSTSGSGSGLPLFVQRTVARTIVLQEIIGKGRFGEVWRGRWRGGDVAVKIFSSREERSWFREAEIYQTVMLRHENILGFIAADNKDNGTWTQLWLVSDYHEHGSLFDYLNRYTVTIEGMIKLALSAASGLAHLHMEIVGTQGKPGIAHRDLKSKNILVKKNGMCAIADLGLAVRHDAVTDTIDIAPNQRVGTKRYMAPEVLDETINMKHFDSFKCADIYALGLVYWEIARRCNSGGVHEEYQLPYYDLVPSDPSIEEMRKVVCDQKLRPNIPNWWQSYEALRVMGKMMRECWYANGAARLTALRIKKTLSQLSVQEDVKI
smiles,measurement,setting,value
COC(=O)[C@]1(O)C[C@@H]2O[C@@]1(C)n1c3ccccc3c3c4c(c5c6ccccc6n2c5c31)C(=O)NC4,residual activity,ACVR1B (human),0%
same,residual activity,MAPK3 (human),-1%
